Assay: xn = mol fraction of the nth substance listed
Settings: 100 kPa, Liquid; for viscosity: Capillary tube (Ostwald / Ubbelohde) method; for mass density: Vibrating tube method

CCCCCCCCCCCC(=O)OCC [ethyl dodecanoate] + CCCCCCCCCCCCCCCC
Settings | mass density [kg/m3] | viscosity [mPa·s]
298.15 K, x2 = 0 | 858.19 | 3.015
298.15 K, x2 = 0.1 | 848.2 | 2.977
298.15 K, x2 = 0.2 | 838.49 | 2.954
298.15 K, x2 = 0.3 | 829.03 | 2.935
298.15 K, x2 = 0.4 | 819.83 | 2.925
298.15 K, x2 = 0.5 | 810.88 | 2.923
298.15 K, x2 = 0.6 | 802.18 | 2.933
298.15 K, x2 = 0.7 | 793.76 | 2.952
298.15 K, x2 = 0.7999 | 785.59 | 2.98
298.15 K, x2 = 0.9 | 777.65 | 3.024
303.15 K, x2 = 0 | 854.3 | 2.704
303.15 K, x2 = 0.1 | 844.34 | 2.673
303.15 K, x2 = 0.2 | 834.69 | 2.65
303.15 K, x2 = 0.3 | 825.27 | 2.632
303.15 K, x2 = 0.4 | 816.11 | 2.624
303.15 K, x2 = 0.5 | 807.21 | 2.623
303.15 K, x2 = 0.6 | 798.55 | 2.629
303.15 K, x2 = 0.7 | 790.18 | 2.645
303.15 K, x2 = 0.7999 | 782.04 | 2.668
303.15 K, x2 = 0.9 | 774.14 | 2.706
308.15 K, x2 = 0 | 850.4 | 2.439
308.15 K, x2 = 0.1 | 840.49 | 2.412
308.15 K, x2 = 0.2 | 830.88 | 2.392
308.15 K, x2 = 0.3 | 821.51 | 2.377
308.15 K, x2 = 0.4 | 812.4 | 2.368
308.15 K, x2 = 0.5 | 803.54 | 2.367
308.15 K, x2 = 0.6 | 794.93 | 2.372
308.15 K, x2 = 0.7 | 786.59 | 2.384
308.15 K, x2 = 0.7999 | 778.5 | 2.403
308.15 K, x2 = 0.9 | 770.64 | 2.433
313.15 K, x2 = 0 | 846.5 | 2.213
313.15 K, x2 = 0.1 | 836.63 | 2.188
313.15 K, x2 = 0.2 | 827.07 | 2.169
313.15 K, x2 = 0.3 | 817.75 | 2.155
313.15 K, x2 = 0.4 | 808.68 | 2.149
313.15 K, x2 = 0.5 | 799.87 | 2.146
313.15 K, x2 = 0.6 | 791.3 | 2.15
313.15 K, x2 = 0.7 | 783.01 | 2.16
313.15 K, x2 = 0.7999 | 774.96 | 2.179
313.15 K, x2 = 0.9 | 767.14 | 2.203
318.15 K, x2 = 0 | 842.6 | 2.016
318.15 K, x2 = 0.1 | 832.77 | 1.996
318.15 K, x2 = 0.2 | 823.26 | 1.978
318.15 K, x2 = 0.3 | 813.99 | 1.966
318.15 K, x2 = 0.4 | 804.97 | 1.959
318.15 K, x2 = 0.5 | 796.19 | 1.957
318.15 K, x2 = 0.6 | 787.68 | 1.959
318.15 K, x2 = 0.7 | 779.43 | 1.967
318.15 K, x2 = 0.7999 | 771.42 | 1.981
318.15 K, x2 = 0.9 | 763.64 | 2.003
323.15 K, x2 = 0 | 838.7 | 1.846
323.15 K, x2 = 0.1 | 828.91 | 1.832
323.15 K, x2 = 0.2 | 819.45 | 1.813
323.15 K, x2 = 0.3 | 810.22 | 1.801
323.15 K, x2 = 0.4 | 801.25 | 1.795
323.15 K, x2 = 0.5 | 792.52 | 1.793
323.15 K, x2 = 0.6 | 784.05 | 1.795
323.15 K, x2 = 0.7 | 775.84 | 1.8
323.15 K, x2 = 0.7999 | 767.88 | 1.813
323.15 K, x2 = 0.9 | 760.14 | 1.833

CCCCCCCCCC(=O)OCC [ethyl decanoate] + CCCCCCCCCCCCCCCC
Settings | mass density [kg/m3] | viscosity [mPa·s]
298.15 K, x2 = 0 | 860.05 | 2.115
298.15 K, x2 = 0.1 | 848.4 | 2.169
298.15 K, x2 = 0.2 | 837.44 | 2.23
298.15 K, x2 = 0.3 | 827.17 | 2.298
298.15 K, x2 = 0.4 | 817.5 | 2.374
298.15 K, x2 = 0.5 | 808.41 | 2.46
298.15 K, x2 = 0.6 | 799.81 | 2.556
298.15 K, x2 = 0.7 | 791.69 | 2.664
298.15 K, x2 = 0.8 | 783.98 | 2.785
298.15 K, x2 = 0.9 | 776.78 | 2.923
303.15 K, x2 = 0 | 855.99 | 1.919
303.15 K, x2 = 0.1 | 844.41 | 1.966
303.15 K, x2 = 0.2 | 833.53 | 2.019
303.15 K, x2 = 0.3 | 823.32 | 2.079
303.15 K, x2 = 0.4 | 813.71 | 2.144
303.15 K, x2 = 0.5 | 804.69 | 2.219
303.15 K, x2 = 0.6 | 796.15 | 2.303
303.15 K, x2 = 0.7 | 788.08 | 2.396
303.15 K, x2 = 0.8 | 780.42 | 2.501
303.15 K, x2 = 0.9 | 773.27 | 2.618
308.15 K, x2 = 0 | 851.92 | 1.75
308.15 K, x2 = 0.1 | 840.42 | 1.79
308.15 K, x2 = 0.2 | 829.61 | 1.837
308.15 K, x2 = 0.3 | 819.48 | 1.89
308.15 K, x2 = 0.4 | 809.93 | 1.948
308.15 K, x2 = 0.5 | 800.96 | 2.013
308.15 K, x2 = 0.6 | 792.49 | 2.086
308.15 K, x2 = 0.7 | 784.47 | 2.167
308.15 K, x2 = 0.8 | 776.87 | 2.257
308.15 K, x2 = 0.9 | 769.76 | 2.358
313.15 K, x2 = 0 | 847.85 | 1.603
313.15 K, x2 = 0.1 | 836.43 | 1.639
313.15 K, x2 = 0.2 | 825.69 | 1.68
313.15 K, x2 = 0.3 | 815.62 | 1.726
313.15 K, x2 = 0.4 | 806.15 | 1.777
313.15 K, x2 = 0.5 | 797.24 | 1.835
313.15 K, x2 = 0.6 | 788.82 | 1.899
313.15 K, x2 = 0.7 | 780.86 | 1.97
313.15 K, x2 = 0.8 | 773.31 | 2.049
313.15 K, x2 = 0.9 | 766.26 | 2.137
318.15 K, x2 = 0 | 843.77 | 1.474
318.15 K, x2 = 0.1 | 832.43 | 1.506
318.15 K, x2 = 0.2 | 821.76 | 1.544
318.15 K, x2 = 0.3 | 811.77 | 1.585
318.15 K, x2 = 0.4 | 802.35 | 1.63
318.15 K, x2 = 0.5 | 793.51 | 1.68
318.15 K, x2 = 0.6 | 785.15 | 1.737
318.15 K, x2 = 0.7 | 777.25 | 1.799
318.15 K, x2 = 0.8 | 769.76 | 1.869
318.15 K, x2 = 0.9 | 762.74 | 1.947
323.15 K, x2 = 0 | 839.69 | 1.362
323.15 K, x2 = 0.1 | 828.42 | 1.39
323.15 K, x2 = 0.2 | 817.83 | 1.423
323.15 K, x2 = 0.3 | 807.9 | 1.46
323.15 K, x2 = 0.4 | 798.56 | 1.501
323.15 K, x2 = 0.5 | 789.78 | 1.546
323.15 K, x2 = 0.6 | 781.48 | 1.595
323.15 K, x2 = 0.7 | 773.64 | 1.651
323.15 K, x2 = 0.8 | 766.2 | 1.712
323.15 K, x2 = 0.9 | 759.24 | 1.779

CCCCCCCC(=O)OCC [ethyl octanoate] + CCCCCCCCCCCCCCCC
Settings | mass density [kg/m3] | viscosity [mPa·s]
298.15 K, x2 = 0 | 862.64 | 1.428
298.15 K, x2 = 0.1 | 848.72 | 1.539
298.15 K, x2 = 0.2 | 836.2 | 1.651
298.15 K, x2 = 0.3 | 824.94 | 1.776
298.15 K, x2 = 0.4 | 814.77 | 1.916
298.15 K, x2 = 0.4999 | 805.52 | 2.065
298.15 K, x2 = 0.6 | 797.09 | 2.229
298.15 K, x2 = 0.7 | 789.38 | 2.408
298.15 K, x2 = 0.8 | 782.33 | 2.608
298.15 K, x2 = 0.9 | 775.88 | 2.84
303.15 K, x2 = 0 | 858.34 | 1.313
303.15 K, x2 = 0.1 | 844.55 | 1.407
303.15 K, x2 = 0.2 | 832.14 | 1.513
303.15 K, x2 = 0.3 | 820.97 | 1.623
303.15 K, x2 = 0.4 | 810.9 | 1.744
303.15 K, x2 = 0.4999 | 801.74 | 1.875
303.15 K, x2 = 0.6 | 793.39 | 2.019
303.15 K, x2 = 0.7 | 785.75 | 2.175
303.15 K, x2 = 0.8 | 778.76 | 2.348
303.15 K, x2 = 0.9 | 772.36 | 2.543
308.15 K, x2 = 0 | 854.04 | 1.211
308.15 K, x2 = 0.1 | 840.37 | 1.296
308.15 K, x2 = 0.2 | 828.07 | 1.387
308.15 K, x2 = 0.3 | 817.01 | 1.49
308.15 K, x2 = 0.4 | 807.03 | 1.596
308.15 K, x2 = 0.4999 | 797.95 | 1.712
308.15 K, x2 = 0.6 | 789.68 | 1.837
308.15 K, x2 = 0.7 | 782.11 | 1.974
308.15 K, x2 = 0.8 | 775.18 | 2.124
308.15 K, x2 = 0.9 | 768.84 | 2.291
313.15 K, x2 = 0 | 849.72 | 1.121
313.15 K, x2 = 0.1 | 836.18 | 1.197
313.15 K, x2 = 0.2 | 824 | 1.279
313.15 K, x2 = 0.3 | 813.04 | 1.371
313.15 K, x2 = 0.4 | 803.16 | 1.467
313.15 K, x2 = 0.4999 | 794.16 | 1.57
313.15 K, x2 = 0.6 | 785.97 | 1.68
313.15 K, x2 = 0.7 | 778.47 | 1.801
313.15 K, x2 = 0.8 | 771.61 | 1.933
313.15 K, x2 = 0.9 | 765.33 | 2.083
318.15 K, x2 = 0 | 845.39 | 1.042
318.15 K, x2 = 0.1 | 831.98 | 1.11
318.15 K, x2 = 0.2 | 819.92 | 1.185
318.15 K, x2 = 0.3 | 809.06 | 1.267
318.15 K, x2 = 0.4 | 799.27 | 1.351
318.15 K, x2 = 0.4999 | 790.37 | 1.444
318.15 K, x2 = 0.6 | 782.25 | 1.543
318.15 K, x2 = 0.7 | 774.83 | 1.65
318.15 K, x2 = 0.8 | 768.04 | 1.766
318.15 K, x2 = 0.9 | 761.81 | 1.897
323.15 K, x2 = 0 | 841.06 | 0.971
323.15 K, x2 = 0.1 | 827.77 | 1.034
323.15 K, x2 = 0.2 | 815.83 | 1.101
323.15 K, x2 = 0.3 | 805.08 | 1.172
323.15 K, x2 = 0.4 | 795.39 | 1.251
323.15 K, x2 = 0.4999 | 786.56 | 1.334
323.15 K, x2 = 0.6 | 778.53 | 1.422
323.15 K, x2 = 0.7 | 771.18 | 1.517
323.15 K, x2 = 0.8 | 764.46 | 1.62
323.15 K, x2 = 0.9 | 758.3 | 1.736

Source: the NIST ThermoML archive (doi:10.1016/j.jct.2016.01.021)
